How the values were obtained:
D2 receptor = D2 receptor (Homo sapiens, UniProt P14416); experiment: [3H]Thymidine uptake assay for D2 intrinsic activity; type: cell-based; parameters: Emax: dose or concentration left out as unconfirmed; details: for Emax at 1 µM: test compound 1 μM, 1 μM Quinpirole = 100% intrinsic activity
Sequence of D2 receptor (P14416 whole entry): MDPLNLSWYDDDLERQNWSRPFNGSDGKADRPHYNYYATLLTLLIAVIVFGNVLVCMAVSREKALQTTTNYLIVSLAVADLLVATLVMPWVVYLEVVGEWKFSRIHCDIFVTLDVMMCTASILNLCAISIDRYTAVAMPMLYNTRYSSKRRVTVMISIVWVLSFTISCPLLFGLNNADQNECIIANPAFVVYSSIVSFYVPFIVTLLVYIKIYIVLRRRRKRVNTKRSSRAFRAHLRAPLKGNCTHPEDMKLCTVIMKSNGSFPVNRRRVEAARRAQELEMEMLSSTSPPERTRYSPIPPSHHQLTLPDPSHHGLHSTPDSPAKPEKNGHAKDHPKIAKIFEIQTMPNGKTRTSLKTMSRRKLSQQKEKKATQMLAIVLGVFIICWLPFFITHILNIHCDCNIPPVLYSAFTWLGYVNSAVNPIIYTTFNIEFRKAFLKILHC

SMILES | melting point | Emax at 1 µM (D2 receptor; Table 1) | further results
CCOc1cccc(N2CCN(CCCCOc3ccc4c(n3)NC(=O)CC4)CC2)c1Cl [Example A21, 7-{4-[4-(2-Chloro-3-ethoxy-phenyl)-piperazin-1-yl]-butoxy}-3,4-dihydro-1H-[1,8]naphthyridin-2-one] | 110 to 112 °C |  | 
CC(=O)c1c(Cl)cccc1N1CCN(CCCCOc2ccc3c(n2)NC(=O)CC3)CC1 [Example A28, 7-{4-[4-(2-Acetyl-3-chloro-phenyl)-piperazin-1-yl]-butoxy}-3,4-dihydro-1H-[1,8]naphthyridin-2-one] | 115 °C | 2% | 
CC(=O)c1cccc(N2CCN(CCCCOc3ccc4c(n3)NC(=O)CC4)CC2)c1Cl [Example A32, 7-{4-[4-(3-Acetyl-2-chloro-phenyl)-piperazin-1-yl]-butoxy}-3,4-dihydro-1H-[1,8]naphthyridin-2-one] | 138 to 139 °C | 7% | 
O=C1CCc2ccc(OCCCCN3CCN(c4cccc5c4CCCC5=O)CC3)nc2N1 [Example A58, 7-{4-[4-(5-Oxo-5,6,7,8-tetrahydro-naphthalen-1-yl)-piperazin-1-yl]-butoxy}-3,4-dihydro-1H-[1,8]naphthyridin-2-one] | 169 to 170 °C | 48% | 
CC(=O)c1cccc(N2CCN(CCCCOc3ccc4ccc(=O)[nH]c4n3)CC2)c1Cl [Example B6, 7-{4-[4-(3-Acetyl-2-chloro-phenyl)-piperazin-1-yl]-butoxy}-1H-[1,8]naphthyridin-2-one] | 108 to 110 °C | 16% | 
O=C1CCCc2c1cccc2N1CCN(CCCCOc2ccc3ccc(=O)[nH]c3n2)CC1 [Example B42, 7-{4-[4-(5-Oxo-5,6,7,8-tetrahydro-naphthalen-1-yl)-piperazin-1-yl]-butoxy}-1H-[1,8]naphthyridin-2-one] | 158 to 160 °C | 37% | 
O=c1ccc2ccc(CCCCCN3CCN(c4cccc(Cl)c4Cl)CC3)nc2[nH]1 [Example C20, 7-{5-[4-(2,3-Dichloro-phenyl)-piperazin-1-yl]-pentyl}-1H-[1,8]naphthyridin-2-one] | 176 to 178 °C |  | 
Cc1cc(=O)[nH]c2nc(OCCCCN3CCN(c4cccc(Cl)c4Cl)CC3)ccc12 [Example D1, 7-{4-[4-(2,3-Dichloro-phenyl)-piperazin-1-yl]-butoxy}-4-methyl-1H-[1,8]naphthyridin-2-one] | 181 to 182 °C | 31% | 
Cc1cc(=O)[nH]c2nc(CCCCCN3CCN(c4cccc(Cl)c4Cl)CC3)ccc12 [Example D3, 7-{5-[4-(2,3-Dichloro-phenyl)-piperazin-1-yl]-pentyl}-4-methyl-1H-[1,8]naphthyridin-2-one] | 195 to 196 °C | 15% | 
Cc1cc2ccc(CCCCCN3CCN(c4cccc(Cl)c4Cl)CC3)nc2[nH]c1=O [Example D5, 7-{5-[4-(2,3-Dichloro-phenyl)-piperazin-1-yl]-pentyl}-3-methyl-1H-[1,8]naphthyridin-2-one] | 157 to 158 °C | 15% | 
Cc1c(C)c2ccc(OCCCCN3CCN(c4cccc(Cl)c4Cl)CC3)nc2[nH]c1=O [Example D7, 7-{4-[4-(2,3-Dichloro-phenyl)-piperazin-1-yl]-butoxy}-3,4-dimethyl-1H-[1,8]naphthyridin-2-one] | 161 to 163 °C | 15% | 
Cc1c(C)c2ccc(CCCCCN3CCN(c4cccc(Cl)c4Cl)CC3)nc2[nH]c1=O [Example D8, 7-{5-[4-(2,3-Dichloro-phenyl)-piperazin-1-yl]-pentyl}-3,4-dimethyl-1H-[1,8]naphthyridin-2-one] | 202 to 203 °C | 8% | 
Cc1cc2c(nc1OCCCCN1CCN(c3cccc(Cl)c3Cl)CC1)NC(=O)CC2 [Example E1, 7-{4-[4-(2,3-Dichloro-phenyl)-piperazin-1-yl]-butoxy}-6-methyl-3,4-dihydro-1H-[1,8]naphthyridin-2-one] | 138 to 139 °C | 32% | 
O=c1ccc2cnc(OCCCCN3CCN(c4cccc5c4OC(F)(F)O5)CC3)cc2[nH]1 [Example H9′, 7-{4-[4-(2,2-Difluoro-benzo[1,3]dioxol-4-yl)-piperazin-1-yl]-butoxy}-1H-[1,6]naphthyridin-2-one] |  |  | Emax at 1 µM (D2 receptor; Table 2): 31%
Cc1nc(OCCCCN2CCN(c3cccc4ccc(F)cc34)CC2)nc2[nH]c(=O)ccc12 [Example H10, 2-{4-[4-(7-Fluoro-naphthalen-1-yl)-piperazin-1-yl]-butoxy}-4-methyl-8H-pyrido[2,3-d]pyrimidin-7-one] |  | 44% | 
COc1ccc2cccc(N3CCN(CCCCOc4nc(C)c5ccc(=O)[nH]c5n4)CC3)c2c1 [Example H11, 2-{4-[4-(7-Methoxy-naphthalen-1-yl)-piperazin-1-yl]-butoxy}-4-methyl-8H-pyrido[2,3-d]pyrimidin-7-one] |  | 23% | 
Cc1nc(OCCCCN2CCN(c3cccc4ccccc34)CC2)nc2[nH]c(=O)ccc12 [Example H12, 4-Methyl-2-[4-(4-naphthalen-1-yl-piperazin-1-yl)-butoxy]-8H-pyrido[2,3-d]pyrimidin-7-one] |  | 34% | 
Cc1nc(OCCCCN2CCN(c3cccc4ccc(F)cc34)CC2)nc2c1ccc(=O)n2C [Example H13, 2-{4-[4-(7-Fluoro-naphthalen-1-yl)-piperazin-1-yl]-butoxy}-4,8-dimethyl-8H-pyrido[2,3-d]pyrimidin-7-one] |  | 36% | 

SMILES | melting point | Emax at 1 µM (D2 receptor; Table 1) | further results
COc1ccc2cccc(N3CCN(CCCCOc4nc(C)c5ccc(=O)n(C)c5n4)CC3)c2c1 [Example H14, 2-{4-[4-(7-Methoxy-naphthalen-1-yl)-piperazin-1-yl]-butoxy}-4,8-dimethyl-8H-pyrido[2,3-d]pyrimidin-7-one] |  | 33% | 
O=C1CCc2cnc(CCCCCN3CCN(c4cccc(Cl)c4Cl)CC3)cc2N1 [Example I1, 7-{5-[4-(2,3-Dichloro-phenyl)-piperazin-1-yl]-pentyl}-3,4-dihydro-1H-[1,6]naphthyridin-2-one] |  | 17% | 
O=C1CCc2cnc(OCCCCN3CCN(c4cccc5c4CCCC5)CC3)cc2N1 [Example I2, 7-{4-[4-(5,6,7,8-Tetrahydro-naphthalen-1-yl)-piperazin-1-yl]-butoxy}-3,4-dihydro-1H-[1,6]naphthyridin-2-one] |  | 37% | 
O=C1CCc2cnc(OCCCCN3CCN(c4cccc5ccccc45)CC3)cc2N1 [Example I3, 7-[4-(4-Naphthalen-1-yl-piperazin-1-yl)-butoxy]-3,4-dihydro-1H-[1,6]naphthyridin-2-one] |  | 33% | 
O=C1CCc2cnc(OCCCCN3CCN(c4cccc5c4CCC5)CC3)cc2N1 [Example I5, 7-[4-(4-Indan-4-yl-piperazin-1-yl)-butoxy]-3,4-dihydro-1H-[1,6]naphthyridin-2-one] |  | 23% | 
O=C1CCc2cnc(OCCCCN3CCN(c4cccc5ccc(F)cc45)CC3)cc2N1 [Example I6, 7-{4-[4-(7-Fluoro-naphthalen-1-yl)-piperazin-1-yl]-butoxy}-3,4-dihydro-1H-[1,6]naphthyridin-2-one] |  |  | Emax (D2 receptor; read-out: D2 Intrinsic Activity (%)): 24%
O=C1CCc2cnc(OCCCCN3CCN(c4cccc5ccccc45)CC3)c(Br)c2N1 [Example I7, 8-Bromo-7-[4-(4-naphthalen-1-yl-piperazin-1-yl)-butoxy]-3,4-dihydro-1H-[1,6]naphthyridin-2-one] |  | 37% | 
O=C1CCc2cnc(OCCCCN3CCN(c4cccc(Cl)c4Cl)CC3)c(Br)c2N1 [Example I8, 8-Bromo-7-{4-[4-(2,3-dichloro-phenyl)-piperazin-1-yl]-butoxy}-3,4-dihydro-1H-[1,6]naphthyridin-2-one] |  | 25% | 
O=C1CCc2cnc(OCCCCN3CCN(c4cccc(Cl)c4Cl)CC3)c(Cl)c2N1 [Example I9, 8-Chloro-7-{4-[4-(2,3-dichloro-phenyl)-piperazin-1-yl]-butoxy}-3,4-dihydro-1H-[1,6]naphthyridin-2-one] |  | 19% | 
O=C1CCc2cnc(OCCCCN3CCN(c4cccc5ccccc45)CC3)c(Cl)c2N1 [Example I10, 8-Chloro-7-[4-(4-naphthalen-1-yl-piperazin-1-yl)-butoxy]-3,4-dihydro-1H-[1,6]naphthyridin-2-one] |  | 21% | 
COC(=O)c1c(OCCCCN2CCN(c3cccc4ccccc34)CC2)ncc2c1NC(=O)CC2 [Example I11, 7-[4-(4-Naphthalen-1-yl-piperazin-1-yl)-butoxy]-2-oxo-1,2,3,4-tetrahydro-[1,6]naphthyridine-8-carboxylic acid methyl ester] |  | 19% | 
O=c1ccc2cnc(OCCCCN3CCN(c4cccc5c4CCCC5)CC3)cc2[nH]1 [Example I14, 7-{4-[4-(5,6,7,8-Tetrahydro-naphthalen-1-yl)-piperazin-1-yl]-butoxy}-1H-[1,6]naphthyridin-2-one] |  | 24% | 
O=c1ccc2cnc(OCCCCN3CCN(c4cccc5c4CCC5)CC3)cc2[nH]1 [Example I15, 7-[4-(4-Indan-4-yl-piperazin-1-yl)-butoxy]-1H-[1,6]naphthyridin-2-one] |  | 20% | 
O=c1ccc2cnc(OCCCCN3CCN(c4cccc5ccccc45)CC3)cc2[nH]1 [Example I16, 7-[4-(4-Naphthalen-1-yl-piperazin-1-yl)-butoxy]-1H-[1,6]naphthyridin-2-one] |  | 27% | 
O=c1ccc2cnc(OCCCCN3CCN(c4cccc5ccc(F)cc45)CC3)cc2[nH]1 [Example I17, 7-{4-[4-(7-Fluoro-naphthalen-1-yl)-piperazin-1-yl]-butoxy}-1H-[1,6]naphthyridin-2-one] |  | 32% | 
O=c1ccc2cnc(NCCCCN3CCN(c4cccc(Cl)c4Cl)CC3)cc2[nH]1 [Example I18, 7-{4-[4-(2,3-Dichloro-phenyl)-piperazin-1-yl]-butylamino}-1H-[1,6]naphthyridin-2-one] |  | 54% | 
CC1(C)OC(=O)Nc2cc(CCCCCN3CCN(c4cccc(Cl)c4Cl)CC3)ncc21 [Example I19, 7-{5-[4-(2,3-Dichloro-phenyl)-piperazin-1-yl]-pentyl}-4,4-dimethyl-1,4-dihydro-pyrido[4,3-d][1,3]oxazin-2-one] |  | 22% | 

Reference: patent publication US7160888B2, “[1,8]naphthyridin-2-ones and related compounds for the treatment of schizophrenia” (Warner Lambert Company LLC, priority 2003, dated 2007)
